Ends that are not written are not given here.
Assays:
[1] = test system: unfractionated heparin (thrombin-induced clot formation); assay: Thrombin neutralization assay: clotting time of citrated plasma in the presence of unfractionated heparin; type: biochemical, human; settings: UFH 0.5 IU/ml
How it was run: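 Citrated plasma from three donors was combined with unfractionated heparin (0.5 IU anti-thrombin activity/ml) and heparin-binding peptide for 1 min at room temperature in glass tubes. Thrombin was then added, and clotting time was determined by visual observation of clot formation.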

[2] = test system: Anti-Factor Xa Activity of the Non-Heparin Glycosaminoglycan Orgaran ®; assay: Anti-Factor Xa assay: neutralization of Orgaran in citrate or plasma in vitro; type: biochemical, human
How it was run: (§1)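 Chromogenic anti-Factor Xa kit run with UFH, enoxaparin (Lovenox) or danaparoid (Orgaran) in 0.32% citrate or citrated plasma from three volunteers. Heparin/ATIII complex formed, peptide added, then Factor Xa and dye substrate; absorbance at 405 nm, inversely proportional to remaining anti-Factor Xa activity.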

[3] = Hemodynamic effects in rats without prior Lovenox
[4] = test system: platelets; assay: Platelet aggregation with aggregation-inducing agents; type: cell-based, human; settings: 12 μg/ml; Lovenox 0.5 U/ml; collagen, ADP, ristocetin, epinephrine, SFFLRN, A23187
How it was run: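 Plasma from six donors, platelets equilibrated 1 min before agonist (collagen, ADP, ristocetin, epinephrine, SFFLRN, A23187; several concentrations each). Heparin-binding peptides at 12 μg/ml, Lovenox at 0.5 U/ml, protamine also tested. Percent aggregation monitored over 5 min.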

[5] = Hemodynamic effects in rats after administration of the LMWH Lovenox; settings: in the presence of LMWH Lovenox
Description: Next, experiments were performed in which the animals were treated with the peptides after the administration of the LMWH Lovenox®, as would happen in the clinical situation, because binding of peptides to LMWH would be expected to reduce the effects of the peptides on hemodynamic function.

[6] = test system: anti-Factor Xa Activity of Unfractionated Heparin; assay: Anti-Factor Xa assay: neutralization of unfractionated heparin in citrate or plasma in vitro; type: biochemical, human; settings: for Unfractionated Heparin Neutralized: UFH 0.7 U/ml
How it was run: as §1

Sequence: ARKKAAKAARKKAAKAARKKAAKAVLVLVLVL [(ARKKAAKA)3VLVLVLVL]
- Time for clot formation ([1]; 0.30 μg peptide/0.1 ml, plasma A): 37.00 ± 2.16 s
- Time for clot formation ([1]; 0.30 μg peptide/0.1 ml, plasma B): 40.00 ± 1.63 s
- Time for clot formation ([1]; 0.35 μg peptide/0.1 ml, plasma B): 28.33 ± 1.70 s
- Time for clot formation ([1]; 0.35 μg peptide/0.1 ml, plasma C): 45.33 ± 2.05 s
- Time for clot formation ([1]; 0.40 μg peptide/0.1 ml, plasma A): 20.00 ± 0.82 s
- Time for clot formation ([1]; 0.40 μg peptide/0.1 ml, plasma B): 26.67 ± 1.25 s
- Time for clot formation ([1]; 0.40 μg peptide/0.1 ml, plasma C): 32.33 ± 2.05 s
- Time for clot formation ([1]; 0.50 μg peptide/0.1 ml, plasma A): 17.67 ± 1.25 s
- Time for clot formation ([1]; 0.50 μg peptide/0.1 ml, plasma B): 23.67 ± 0.47 s
- Time for clot formation ([1]; 0.50 μg peptide/0.1 ml, plasma C): 25.67 ± 0.47 s
- Orgaran Neutralized ([2]; 1 μg/ml Peptide, A Plasma): 0.028 ± 0.016 U/ml
- Orgaran Neutralized ([2]; 1 μg/ml Peptide, B Plasma): 0.026 ± 0.011 U/ml
- Orgaran Neutralized ([2]; 1 μg/ml Peptide, C Plasma): 0.035 ± 0.010 U/ml
- Orgaran Neutralized ([2]; 1 μg/ml Peptide, Citrate): 0.078 ± 0.031 U/ml
- Orgaran Neutralized ([2]; 6 μg/ml Peptide, A Plasma): 0.050 ± 0.026 U/ml
- Orgaran Neutralized ([2]; 6 μg/ml Peptide, B Plasma): 0.049 ± 0.021 U/ml
- Orgaran Neutralized ([2]; 6 μg/ml Peptide, C Plasma): 0.075 ± 0.005 U/ml
- Orgaran Neutralized ([2]; 6 μg/ml Peptide, Citrate): 0.114 ± 0.007 U/ml
- Orgaran Neutralized ([2]; 12 μg/ml Peptide, A Plasma): 0.109 ± 0.019 U/ml
- Orgaran Neutralized ([2]; 12 μg/ml Peptide, B Plasma): 0.083 ± 0.016 U/ml
- Orgaran Neutralized ([2]; 12 μg/ml Peptide, C Plasma): 0.114 ± 0.010 U/ml
- Orgaran Neutralized ([2]; 12 μg/ml Peptide, Citrate): 0.227 ± 0.017 U/ml
- Orgaran Neutralized ([2]; 60 μg/ml Peptide, A Plasma): 0.281 ± 0.036 U/ml
- Orgaran Neutralized ([2]; 60 μg/ml Peptide, B Plasma): 0.258 ± 0.013 U/ml
- Orgaran Neutralized ([2]; 60 μg/ml Peptide, C Plasma): 0.248 ± 0.020 U/ml
- Orgaran Neutralized ([2]; 60 μg/ml Peptide, Citrate): 0.380 ± 0.021 U/ml
- Orgaran Neutralized ([2]; 120 μg/ml Peptide, A Plasma): 0.366 ± 0.010 U/ml
- Orgaran Neutralized ([2]; 120 μg/ml Peptide, B Plasma): 0.320 ± 0.010 U/ml
- Orgaran Neutralized ([2]; 120 μg/ml Peptide, C Plasma): 0.296 ± 0.011 U/ml
- Orgaran Neutralized ([2]; 120 μg/ml Peptide, Citrate): 0.345 ± 0.032 U/ml
- effect on blood pressure ([3]; 2 mg per rat, no Lovenox): In most rats no drop in blood pressure was seen
- duration of transient blood pressure drop ([3]; in one rat): 1 to 2 min
- effect on platelet aggregation [4]: no significant inhibition or enhancement of aggregation
- effect on blood pressure and heart rate / toxicity [5]: no, or minimal, adverse effects on blood pressure or heart rate
- effectiveness in neutralizing UFH [6]: most effective peptide
- Unfractionated Heparin Neutralized ([6]; 1 μg/ml Peptide, A Plasma): 0.258 ± 0.153 U/ml
- Unfractionated Heparin Neutralized ([6]; 1 μg/ml Peptide, B Plasma): 0.247 ± 0.034 U/ml
- Unfractionated Heparin Neutralized ([6]; 1 μg/ml Peptide, C Plasma): 0.116 ± 0.032 U/ml
- Unfractionated Heparin Neutralized ([6]; 1 μg/ml Peptide, Citrate): 0.072 ± 0.042 U/ml
- Unfractionated Heparin Neutralized ([6]; 6 μg/ml Peptide, A Plasma): 0.580 ± 0.067 U/ml
- Unfractionated Heparin Neutralized ([6]; 6 μg/ml Peptide, B Plasma): 0.597 ± 0.046 U/ml
- Unfractionated Heparin Neutralized ([6]; 6 μg/ml Peptide, C Plasma): 0.582 ± 0.035 U/ml
- Unfractionated Heparin Neutralized ([6]; 6 μg/ml Peptide, Citrate): 0.651 ± 0.084 U/ml
- Unfractionated Heparin Neutralized ([6]; 12 μg/ml Peptide, A Plasma): 0.562 ± 0.050 U/ml
- Unfractionated Heparin Neutralized ([6]; 12 μg/ml Peptide, B Plasma): 0.586 ± 0.053 U/ml
- Unfractionated Heparin Neutralized ([6]; 12 μg/ml Peptide, C Plasma): 0.554 ± 0.049 U/ml
- Unfractionated Heparin Neutralized ([6]; 12 μg/ml Peptide, Citrate): 0.505 ± 0.049 U/ml
- Unfractionated Heparin Neutralized ([6]; 60 μg/ml Peptide, A Plasma): 0.535 ± 0.054 U/ml
- Unfractionated Heparin Neutralized ([6]; 60 μg/ml Peptide, B Plasma): 0.444 ± 0.019 U/ml
- Unfractionated Heparin Neutralized ([6]; 60 μg/ml Peptide, C Plasma): 0.539 ± 0.010 U/ml
- Unfractionated Heparin Neutralized ([6]; 60 μg/ml Peptide, Citrate): 0.528 ± 0.039 U/ml
- Unfractionated Heparin Neutralized ([6]; 120 μg/ml Peptide, A Plasma): 0.490 ± 0.049 U/ml
- Unfractionated Heparin Neutralized ([6]; 120 μg/ml Peptide, B Plasma): 0.279 ± 0.038 U/ml
- Unfractionated Heparin Neutralized ([6]; 120 μg/ml Peptide, C Plasma): 0.460 ± 0.057 U/ml
- Unfractionated Heparin Neutralized ([6]; 120 μg/ml Peptide, Citrate): 0.510 ± 0.117 U/ml

— patent US7259140B2, “Heparin-binding peptides and uses thereof” (Thomas Jefferson University, priority 2003, dated 2007)
